Like-named read-outs stand apart in the source and are kept apart here.
Experiments:
[1] = tested on: Staphylococcus aureus; assay: filter-paper disk agar diffusion (Kirby-Bauer) antibacterial activity; assay type: cell-based; conditions: S. aureus; for Diameter of clear zone: filter disk 10 mm
Description: The standardized filter-paper disk agar diffusion method was used to determine the antibacterial activity of magnolol and honokiol against Staphylococcus aureus. This method was also well-known as Kirby-Bauer method, and has been widely used to determine the antibacterial activity (see, European Journal of Pharmacology, Junho Park et al, 2004, 496(1-3), 189-195). Briefly, Staphylococcus aureus cells were incubated with brain heart infusion (BHI) broth at 37° C. under anaerobic conditions until they reach the stationary phase. Approximately 1×10^6 bacteria cells were mixed with 7 ml of BHI agar medium containing 0.8% phytoagar and then, poured on the agar plate containing 1.5% phytoagar. The filter-paper discs (10 mm diameter) were treated with magnolol and honokiol at respective test concentrations, and then placed on the BHI agar plate inoculated with the test bacteria. The plate was incubated at 37° C. for 24 hours under anaerobic conditions, and then the antibacterial activity was determined by measuring the size of clear zone (growth inhibition halo) around the disk. The size of clear zone has the functional relation with the logarithmic value of magnolol or honokiol concentration, from which the standard calibration curve could be derived (FIG. 1). The unknown concentration of the test sample can be determined from this standard calibration curve. […] The antibacterial activity was remarkable at 6.25 μg/disk (0.39 mM) for honokiol and 12.5 μg/disk (0.78 mM) for magnolol (Table 1).

[2] = tested on: Staphylococcus aureus; assay: Minimum Inhibitory Concentration, two-fold serial dilution; assay type: cell-based; conditions: 24 h, read-out: MIC of agents
Description: The test was conducted to determine the Minimum Inhibitory Concentrations (MIC) of magnolol and honokiol. Staphylococcus aureus incubated for 24 hours was introduced into 3 ml of brain heart infusion broth, and at the same time, magnolol and honokiol were respectively added thereto, and then incubated for 24 hours at 37° C. under anaerobic conditions. To determine MICs of honokiol and magnolol the two-fold serial dilution method was used. As used herein, MIC is defined as the minimum concentration at which the growth of microorganism is inhibited. As presented in Table 2, it could be confirmed that MICs of magnolol and honokiol for Staphylococcus aureus were 6 μg/ml and 2 μg/ml, respectively. That is, it can be seen that the antibacterial activity of honokiol is higher than that of magnolol.

[3] = tested on: Staphylococcus aureus; assay: Minimum Bacteriocidal Concentration / kinetics of bacterial killing; assay type: cell-based
Description: The inhibition of bacterial growth with a certain substance is the result obtained by inhibiting the proliferation of respective cells or killing the cells. […] The following experiment was conducted to determine the Minimum Bacteriocidal Concentration (MBC). First, the same procedures as the determination of MIC were conducted in the liquid culture medium, and then a portion of the culture medium in the test tube in which no proliferation was shown was taken, diluted to remove magnolol and honokiol therefrom, and then incubated on the solid culture medium and observed for the colony formation after 24 hours. At this time, MBC means the minimum value of magnolol or honokiol concentration in the original culture solution in the plate medium on which no colony was produced. To determine MBC of magnolol and honokiol Staphylococcus aureus was used, and magnolol or honokiol was applied at the concentration one, five and 10 times as high as MIC concentration thereof to determine the kinetics of bacterial killing. The survival rate of microbes was determined within 2 hours.

[4] = tested on: interleukin-8; assay: interleukin-8 production induced by heat-inactivated Staphylococcus aureus in THP-1 cells (ELISA); assay type: cell-based, human; conditions: heat-inactivated S. aureus 100 μg/ml, 48 hours
Description: In general, the inflammatory response generated by bacteria or bacterial components is mediated by proinflammatory cytokines. To determine whether magnolol or honokiol can inhibit the inflammatory response generated by Staphylococcus aureus ELISA for interleukin-8 and TNF-alpha was conducted. For this purpose, THP-1 cell line as human monocyte cell line was used. 1×10^6 THP-1 cells were incubated for 14 hours under serum-free conditions, and then treated with heat-inactivated Staphylococcus aureus 100 μg/ml alone or simultaneously with magnolol and honokiol, respectively, which was then incubated for 48 hours. The amounts of interleukin-8 and TNF-alpha secreted into cell culture medium were measured by means of ELISA kit (Genzyme, Minneapolis, Minn.).

[5] = tested on: TNF-alpha; assay: TNF-alpha production induced by heat-inactivated Staphylococcus aureus in THP-1 cells (ELISA); assay type: cell-based, human; conditions: heat-inactivated S. aureus 100 μg/ml, 48 hours
Description: In addition, the experiment was conducted to identify the synergistic anti-inflammatory effect when magnolol and honokiol are combined in a certain ratio. The efficacy to inhibit the production of TNF-alpha was examined in cases where the combined ratio of magnolol and honokiol is 1 (7.5 μM):1 (7.5 μM), 1 (5 μM):2 (10 μM), and 2(10 μM):1 (5 μM) or in case of treating with 15 μM of magnolol alone or 15 μM of honokiol alone.

[6] = tested on: patients suffering from mild or moderate atopic dermatitis; assay: clinical evaluation of skin topical preparations in atopic dermatitis (EASI, pruritus); assay type: in vivo, human; conditions: applied as 1% cream; 2 and 4 weeks
Description: The cosmetic compositions for atopy containing magnolol, honokiol and pimecrolimus, respectively were prepared with the contents of components as listed in the following Table 3, according to the conventional method. In the following Table 3, the control group is for the skin topical preparation with no antibacterial and anti-inflammatory substance, and the test groups 1, 2 and 3 are for the cosmetic compositions for skin topical use to treat atopy containing magnolol, honokiol and pimecrolimus, respectively.
To prepare the skin topical preparation purified water, glycerin and butylene glycol were mixed and dissolved at 70° C. (aqueous part), and the remaining components except for the three components and trimethanolamine were dissolved at 70° C. (oil part). The oil part was added to the aqueous part and stirred with a homomixer (from Tokushu Kika Kogyo, Co., Ltd. In Japan) to induce the first emulsification to which trimethanolamine was finally added. […]
1) The symptoms and extent of atopic dermatitis were objectively determined using EASI (Eczema Area Severity Index) as follows, before treatment and 2 and 4 weeks after treatment. […]
EASI score and pruritus score were compared and evaluated by applying Kruskall-Wallis one-way ANOVA method as the basic statistical method before treatment and 2 and 4 weeks after treatment. […]

| SMILES | Diameter of clear zone ([1]; 6.25 mg/disk (footnote a)) | Diameter of clear zone ([1]; 12.5 mg/disk (footnote a)) | Diameter of clear zone ([1]; 25 mg/disk (footnote a)) | Diameter of clear zone ([1]; 50 mg/disk (footnote a)) | amount at which the antibacterial activity was remarkable ([1]; disk diffusion) [μg/disk] | concentration at which the antibacterial activity was remarkable ([1]; disk diffusion, printed in brackets after μg/disk) [mM] | MIC [2] [µg/mL] | concentration at which Staphylococcus aureus was completely exterminated within 10 minutes [3] [µg/mL] | concentration at which Staphylococcus aureus was completely exterminated within 10 minutes ([3]; printed in brackets after μg/ml) [µM] | production of interleukin-8 induced by Staphylococcus aureus [4] | production of TNF-alpha induced by Staphylococcus aureus [5] | pruritus accompanied by atopic dermatitis (visual analog scale) [6] |
| --- | --- | --- | --- | --- | --- | --- | --- | --- | --- | --- | --- | --- |
| CC[C@H]1OC(=O)[C@H](C)[C@@H](O[C@H]2C[C@@](C)(OC)[C@@H](O)[C@H](C)O2)[C@H](C)[C@@H](O[C@@H]2O[C@H](C)C[C@H](N(C)C)[C@H]2O)[C@](C)(O)C[C@@H](C)C(=O)[C@H](C)[C@@H](O)[C@]1(C)O [Erythromycin, reference compound] | 35 ± 2.2^c mm | 42 ± 3.8^c mm | 45 ± 2.5^c mm | 48 ± 5^c mm | – | – | – | – | – | – | – | – |
| C=CCc1ccc(O)c(-c2cc(CC=C)ccc2O)c1 [Magnolol, 5,5′-di-2-propenyl-1,1′-biphenyl-2,2′-diol] | – | 11 ± 0.4^c mm | 15 ± 0.2^c mm | 18 ± 0.2^c mm | 12.5 | 0.78 | 6 | 45 | 169.2 | reduced | reduced | significantly improved |
